This note sets out measurements from patent EP4671247A1, “SUBSTITUTED PYRAZOLOPYRIMIDINE COMPOUND AND PHARMACEUTICAL USE THEREOF” (Japan Tobacco Inc., priority 2023, dated 2024).

Read-outs that look alike come from different tables or passages of the source.

The assay deals with T1, NLRP3 inflammasome (Homo sapiens, UniProt Q96P20).
T1 construct: host or cells: THP1-Null cells (PMA-differentiated, LPS-primed, nigericin-stimulated)
Kind of assay: Evaluation of NLRP3 inflammasome inhibitory activity (inhibition of IL-1β production in LPS/Nigericin-stimulated THP1-Null cells, AlphaLISA). The class given is cell-based. The following applies: for IC50: PMA, 1 µg/mL Lipopolysaccharides 3 hours, Nigericin 7.5 µmol/L 1.5 hours; for inhibition at 2.4 µM: test compound at 2.4 µM; for inhibition at 24 µM: test compound at 24 µM. The protocol:
The NLRP3 inflammasome inhibitory activity of test compounds were evaluated on the basis of the inhibitory activity of the IL-1β production in THP1-Null cells (Product Number: thp-null, InvivoGen).
The supernatant of the culture was removed, and thereto was added media for assay (25 µL/well) containing 1 µg/mL Lipopolysaccharides (Product Number: L2654, Sigma-Aldrich (registered trademark)). […] The supernatant of the culture was removed. […] A solution containing a test compound (20 µL/well) was added to test compound-setting wells. […] The supernatant of the culture was cryonically stored (set at -20°C) until measurement of IL-1β.
The amount of IL-1β in the culture supernatant was quantitated with AlphaLISA (registered trademark) Human IL-1β Detection Kit (Product Number: AL220C, Perkin Elmer). Fluorescence intensity was measured with a microplate reader EnSpier (Model number: 2300-00J, Perkin Elmer) or EnSight (Model number: HH34000000, Perkin Elmer) according to procedure manuals attached thereto. Inhibition rates of the test compound-setting wells were calculated on the basis of 100% for the blank-setting wells and 0% for the control-setting wells.

The mark [1] stands for this setting: IL-1β production in THP1-Null cells, read-out: IC50.
Setting [2] is: IL-1β production in THP1-Null cells.
The mark [3] stands for this setting: IC50, IL-1β production in THP1-Null cells.

T1 sequence (Q96P20 whole entry): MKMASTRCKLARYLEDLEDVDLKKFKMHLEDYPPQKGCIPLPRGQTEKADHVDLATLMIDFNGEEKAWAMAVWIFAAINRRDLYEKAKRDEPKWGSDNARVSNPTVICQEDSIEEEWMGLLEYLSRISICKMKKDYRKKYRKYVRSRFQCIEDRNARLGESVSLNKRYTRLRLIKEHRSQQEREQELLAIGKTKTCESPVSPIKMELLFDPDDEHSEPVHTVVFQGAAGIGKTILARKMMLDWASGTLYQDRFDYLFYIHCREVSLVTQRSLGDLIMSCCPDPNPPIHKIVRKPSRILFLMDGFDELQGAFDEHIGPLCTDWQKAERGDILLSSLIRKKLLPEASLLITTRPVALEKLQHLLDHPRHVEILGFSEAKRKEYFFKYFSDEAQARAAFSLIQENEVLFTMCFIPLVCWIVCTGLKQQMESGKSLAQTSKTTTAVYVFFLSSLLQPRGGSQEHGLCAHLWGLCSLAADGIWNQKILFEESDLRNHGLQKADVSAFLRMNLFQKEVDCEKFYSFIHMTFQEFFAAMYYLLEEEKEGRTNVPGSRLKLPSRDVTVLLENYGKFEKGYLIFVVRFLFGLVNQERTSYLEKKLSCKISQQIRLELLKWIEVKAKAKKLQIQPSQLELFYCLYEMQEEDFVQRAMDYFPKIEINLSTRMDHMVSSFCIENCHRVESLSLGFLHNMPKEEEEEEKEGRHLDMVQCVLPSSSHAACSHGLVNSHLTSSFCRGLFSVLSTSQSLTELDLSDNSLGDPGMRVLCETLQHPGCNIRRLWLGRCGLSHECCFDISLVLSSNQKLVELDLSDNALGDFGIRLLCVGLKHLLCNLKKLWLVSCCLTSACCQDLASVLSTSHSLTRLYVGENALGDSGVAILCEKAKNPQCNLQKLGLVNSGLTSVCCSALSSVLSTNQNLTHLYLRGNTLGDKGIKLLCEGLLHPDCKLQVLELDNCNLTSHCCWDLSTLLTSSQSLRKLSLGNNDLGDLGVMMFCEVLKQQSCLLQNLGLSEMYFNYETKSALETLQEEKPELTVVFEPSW

With `Cc1cc(C(F)(F)F)cc(C)c1-n1cc2c(=O)[nH]c(C3CC3)nc2n1` [Example 55], the 50% inhibitory concentration (IC50) under setting [1] was found to be 31 nM.

Take `Cc1cc(C2CC2)cc(C)c1-n1cc2c(=O)[nH]c(C3(F)CCOCC3)nc2n1` [Example 73]: under setting [1], the IC50 worked out at 21 nM.

As for `CNC(=O)Cn1c(C)nc2nn(-c3ccc(C)cc3C)cc2c1=O` [Example 17], the inhibition at 2.4 µM under setting [2] was -15%.

Under setting [2], `Cc1cc(OC(F)F)cc(C)c1-n1cc2c(=O)[nH]c(C3CC3F)nc2n1` (single isomer, unassigned) [Example 173] came in with an IC50 of 15 nM.

Under setting [3], `Cc1cc(C2CC2)cc(C)c1-n1cc2c(=O)[nH]c(C3CC4CCN3CC4)nc2n1` (racemic) [Example 119] registered an IC50 of 31 nM.

Regarding `Cc1cc(Br)cc(C)c1-n1cc2c(=O)[nH]c(C3CCC(F)(F)CO3)nc2n1` (racemic) [Example 191], the IC50 under setting [1] is 72 nM.

Take `Cc1cc(Br)cc(C)c1-n1cc2c(=O)[nH]c(C3CC3C(=O)N(C)C)nc2n1` (racemic) [Example 149]: the IC50 under setting [1] is 22 nM.

`COCc1nc2nn(-c3c(C)cc(Br)cc3C)cc2c(=O)[nH]1` [Example 27]: the IC50 under setting [1] is 29 nM.

On to `Cc1cc(Br)cc(C)c1-n1cc2c(=O)[nH]c(COCCO)nc2n1` [Example 96], for which, under setting [1], the half-maximal inhibitory concentration (IC50) worked out at 270 nM.

As to `Cc1cc(Br)cc(C)c1-n1cc2c(=O)[nH]c(C3COCCO3)nc2n1` (racemic) [Example 28], the 50% inhibitory concentration (IC50) under setting [1] stood at 190 nM.

Consider `Cc1cc(C(C)(F)F)cc(C)c1-n1cc2c(=O)[nH]c(C3CC3(F)F)nc2n1` (racemic) [Example 125], for which, under setting [1], the IC50 came to 24 nM.

In the case of `CCc1nc2nn(-c3ccc(C)cc3C)cc2c(=O)[nH]1` [Example 8], the IC50 under setting [1] worked out at 230 nM.

Regarding `Cc1cc(OC(F)F)cc(C)c1-n1cc2c(=O)[nH]c([C@@H](C)O)nc2n1` (single isomer, unassigned) [Example 165], the IC50 under setting [1] is 75 nM.

`Cc1ccc(-n2cc3c(=O)[nH]c(C(F)(F)F)nc3n2)c(C)c1` [Example 7]: the inhibition at 30 µM (test compound at 30 µM, IL-1β production in THP1-Null cells) stood at 44%.

As to `Cc1cc(C2CC2)cc(C)c1-n1nc2nc(C3CC3)[nH]c(=O)c2c1C#N` [Example 87], under setting [1], the IC50 was determined as 11 nM.

`Cc1cc(Br)cc(C)c1-n1cc2c(=O)[nH]c([C@@H]3C[C@@H]3F)nc2n1` [Example 91] gave an IC50 under setting [2] of 8 nM.

Consider `COc1cc(C2CC2)cc(C)c1-n1cc2c(=O)[nH]c(C3(F)CCOCC3)nc2n1` [Example 111], for which the IC50 under setting [1] came to 15 nM.

Turning to `Cc1ccc(-n2cc3c(=O)[nH]c(CC(C)C)nc3n2)c(C)c1` [Example 6], under setting [1], the IC50 is 430 nM.

For the compound `COc1nc(C)nc2nn(-c3c(C)cc(Br)cc3C)cc12` [Example 210, 2-(4-bromo-2,6-dimethylphenyl)-4-methoxy-6-methyl-2H-pyrazolo[3,4-d]pyrimidine], the inhibition at 24 µM under setting [2] was 9%.

Take `Cc1cc(Br)cc(C)c1-n1cc2c(=O)[nH]c([C@@H]3CCOCCO3)nc2n1` [Example 186]: the IC50 under setting [1] worked out at 87 nM.

In the case of `COc1cc(C)c(-n2cc3c(=O)[nH]c(COCc4ccccc4)nc3n2)c(C)c1` [Example 67], the IC50 under setting [1] came to 780 nM.

As to `Cc1cc(C(C)(F)F)cc(C)c1-n1cc2c(=O)[nH]c(C3CCOCCO3)nc2n1` (racemic) [Example 168], the IC50 under setting [2] turned out to be 74 nM.

Turning to `Cc1cc(OC(F)F)cc(C)c1-n1cc2c(=O)[nH]c(C(O)C(F)F)nc2n1` (racemic) [Example 167], under setting [1], the IC50 turned out to be 230 nM.

Take `Cc1cc(C2CC2)cc(C)c1-n1cc2c(=O)[nH]c([C@@H]3C[C@H]3C#N)nc2n1` (racemic) [Example 152]: the half-inhibitory concentration (IC50) under setting [3] came out at 12 nM.

Regarding `Cc1cc(OC(F)F)cc(C)c1-n1cc2c(=O)[nH]c(C3CC3)nc2n1` [Example 54], under setting [1], the IC50 worked out at 33 nM.

Regarding `Cc1ccc(-n2cc3c(=O)n(C)c(C)nc3n2)c(C)c1` [Example 13, 2-(2,4-dimethylphenyl)-5,6-dimethyl-2,5-dihydro-4H-pyrazolo[3,4-d]pyrimidin-4-one], the inhibition at 24 µM under setting [2] is 3%.

For `Cc1cc(Br)cc(C)c1-n1cc2c(=O)[nH]c(C3(F)COC3)nc2n1` [Example 108], under setting [1], the 50% inhibitory concentration (IC50) was 49 nM.

For the compound `Cc1cc(Br)cc(C)c1-n1cc2c(=O)[nH]c(C3COC3)nc2n1` [Example 77], the IC50 under setting [1] was 14 nM.

With `Cc1cc(Br)cc(C)c1-n1cc2c(=O)[nH]c(CC(O)C(F)(F)F)nc2n1` (racemic) [Example 126], under setting [1], the IC50 came to 24 nM.

Consider `Cc1cc(C2CC2)cc(C)c1-n1cc2c(=O)[nH]c(C3CC(F)(F)C3)nc2n1` [Example 45], for which, under setting [1], the IC50 was found to be 7 nM.

Regarding `Cc1cc(Br)cc(C)c1-n1cc2c(=O)[nH]c(CN3CCCCC3)nc2n1` [Example 112], the IC50 under setting [1] stood at 140 nM.

In the case of `Cc1cc(C2CC2)cc(C)c1-n1cc2c(=O)[nH]c(C3CC(F)(F)CCO3)nc2n1` (racemic) [Example 197], under setting [1], the IC50 came to 36 nM.

For the compound `CNC(=O)c1nc2nn(-c3c(C)cc(C4CC4)cc3C)cc2c(=O)[nH]1` [Example 196], the IC50 under setting [1] was 22 nM.

For the compound `Cc1cc(Br)cc(C)c1-n1nc2nc(C3CCOCC3)[nH]c(=O)c2c1C(F)F` [Example 82], the IC50 under setting [1] turned out to be 16 nM.

With `Cc1cc(OC(F)F)cc(C)c1-n1cc2c(=O)[nH]c([C@H](C)O)nc2n1` (single isomer, unassigned) [Example 166], the IC50 under setting [1] worked out at 1300 nM.

Compound `Cc1cc(OC(F)F)cc(C)c1-n1cc2c(=O)[nH]c([C@@H]3C[C@H]3F)nc2n1` (racemic) [Example 171] registered an IC50 under setting [2] of 24 nM.

`COC1CC(c2nc3nn(-c4c(C)cc(Br)cc4C)cc3c(=O)[nH]2)C1` (single isomer, unassigned) [Example 122] gave an IC50 under setting [2] of 61 nM.

Consider `Cc1cc(OC(F)F)cc(C)c1-n1cc2c(=O)[nH]c(C3COCC3F)nc2n1` (single isomer, unassigned) [Example 183], for which the IC50 under setting [2] amounted to 35 nM.

With `COCc1nc2nn(-c3c(C)cc(C(C)(F)F)cc3C)cc2c(=O)[nH]1` [Example 200], the IC50 under setting [1] turned out to be 75 nM.

For the compound `Cc1cc(C(C)(F)F)cc(C)c1-n1cc2c(=O)[nH]c([C@@H](C)O)nc2n1` (single isomer, unassigned) [Example 154], under setting [1], the IC50 amounted to 25 nM.

On to `CCc1nc2nn(-c3c(C)cc(C4(F)CC4)cc3C)cc2c(=O)[nH]1` [Example 192], for which, under setting [1], the IC50 is 20 nM.

In the case of `Cc1cc(C2CC2)cc(C)c1-n1cc2c(=O)[nH]c(CO)nc2n1` [Example 105], under setting [1], the IC50 came out at 13 nM.

As for `Cc1cc(C2CC2)cc(C)c1-n1cc2c(=O)[nH]c(C34CC(F)(C3)C4)nc2n1` [Example 49], the IC50 under setting [1] came to 24 nM.

Consider `COC1(c2nc3nn(-c4c(C)cc(Br)cc4C)cc3c(=O)[nH]2)CCOC1` (racemic) [Example 86], for which the IC50 under setting [1] is 350 nM.

For `Cc1cc(Br)cc(C)c1-n1cc2c(=O)[nH]c(C3CCCCC3)nc2n1` [Example 71], under setting [1], the IC50 amounted to 11 nM.

`Cc1cc(C(C)(F)F)cc(C)c1-n1cc2c(=O)[nH]c(C3(F)CCOCC3)nc2n1` [Example 107]: the IC50 under setting [1] was 15 nM.

Consider `Cc1cc(C2CC2(F)F)cc(C)c1-n1cc2c(=O)[nH]c(C3CC3(F)F)nc2n1` (stereo not drawn) [Example 103], for which, under setting [1], the IC50 was determined as 64 nM.

Consider `Cc1cc(C2CC2)cc(C)c1-n1cc2c(=O)[nH]c(COCC3CCOCC3)nc2n1` [Example 47], for which the IC50 under setting [1] is 180 nM.

Consider `COCCc1nc2nn(-c3ccc(C)cc3C)cc2c(=O)[nH]1` [Example 9], for which, under setting [1], the IC50 worked out at 1100 nM.

As to `COC(Cc1nc2nn(-c3c(C)cc(Br)cc3C)cc2c(=O)[nH]1)C(F)(F)F` (racemic) [Example 127], the concentration for half-maximal inhibition (IC50) under setting [1] was determined as 73 nM.

For the compound `Cc1cc(C2CC2)cc(C)c1-n1cc2c(=O)[nH]c(C3CC3CO)nc2n1` (racemic) [Example 124], the IC50 under setting [1] turned out to be 8 nM.

As to `CCc1nc2nn(-c3c(C)cc(OC(F)F)cc3C)cc2c(=O)[nH]1` [Example 180], the IC50 under setting [1] is 20 nM.

With `Cc1cc(OC(F)F)cc(C)c1-n1cc2c(=O)[nH]c(C3(F)CCOCC3)nc2n1` [Example 136], the IC50 under setting [1] was 49 nM.

`CCOCCc1nc2nn(-c3c(C)cc(Br)cc3C)cc2c(=O)[nH]1` [Example 98]: under setting [1], the IC50 was determined as 98 nM.

For `Cc1cc(C2CC2)cc(C)c1-n1cc2c(=O)[nH]c(C(C)O)nc2n1` (racemic) [Example 123], under setting [2], the IC50 turned out to be 23 nM.

For `Cc1cc(Br)cc(C)c1-n1cc2c(=O)[nH]c(C(O)C(F)F)nc2n1` (racemic) [Example 139], under setting [1], the IC50 stood at 36 nM.

`COC(C)c1nc2nn(-c3c(C)cc(C4CC4)cc3C)cc2c(=O)[nH]1` (racemic) [Example 41]: under setting [1], the IC50 was found to be 93 nM.

With `Cc1cc(C2CC2)cc(C)c1-n1cc2c(=O)[nH]c(C3(F)CCOC3)nc2n1` (single isomer, unassigned) [Example 79], inhibition under setting [2] was half-maximal at 75 nM (IC50).

With `CCC(O)c1nc2nn(-c3c(C)cc(C4CC4)cc3C)cc2c(=O)[nH]1` (racemic) [Example 134], the IC50 under setting [1] is 24 nM.

Turning to `Cc1ccc(-n2cc3c(=O)[nH]c(CN4CCOCC4)nc3n2)c(C)c1` [Example 38], the inhibition at 2.4 µM under setting [2] amounted to 40%.
